Experimental findings from article PMC11045757, “Group 3 medulloblastoma transcriptional networks collapse under domain specific EP300/CBP inhibition” (Nature Communications, 2024) are described below.

In data set [1] the target is T1, BRD4(2) (Homo sapiens, UniProt O60885).
T1 construct: BRD4(2); purchased Eurofins DiscoverX (BROMOscan)
Put plainly: BromoScan profiling (DiscoverX). The format is binding. The settings on record: read-out: Percent Control BRD4(2).

Data set [2] in a line: Brain tissue concentration after i.p. dosing (LC-MS/MS). To be noted: below lower limit of quantitation. The format is in vivo, female CD-1 nude mice. The procedure: One of the most aggressive MB tumor subtypes are Group 3 medulloblastoma (G3MB), which are commonly characterized by overexpression of the driver oncogene c-MYC due to gene amplification in 17% of cases[40],[42],[43]. These tumors are associated with poor patient survival. […] We sacrificed treated mice at three timepoints after dosing (8, 16, 24 h) and perfused the murine vasculature with PBS to eliminate contaminating blood from the brain.
All animal studies were approved by the St. Jude Children’s Research Hospital Animal Care and Use Committee and performed in accordance with best practices outlined by the NIH Office of Laboratory Animal Welfare. […]
Brain samples were homogenized using a FastPrep-24 system (MP Biomedicals, Santa Ana, CA), and stored at -80 °C until analysis by qualified liquid chromatography–tandem mass spectrometry (LC-MS/MS) assay. […] Plasma and brain homogenate samples were precipitated, and extracted supernatant was analyzed on an AB Sciex ExionLC high performance liquid chromatography system via an AB Sciex ExionLC autosampler. For quantitation, a linear model (1/X^2 weighting) fit the plasma and brian homogenate calibrators across the 1 to 500 ng/mL range, with a correlation coefficient (R) of ≥0.9967. […] No matrix effects, ion enhancement or suppression, were detected in blank CD-1 mouse plasma or NSG brain homogenates.

The target of data set [3] is T2, TAF1L(2) (Homo sapiens, UniProt Q8IZX4).
T2 construct: TAF1L(2); purchased Eurofins DiscoverX (BROMOscan)
T2 sequence (Q8IZX4 1517-1654 limits assumed): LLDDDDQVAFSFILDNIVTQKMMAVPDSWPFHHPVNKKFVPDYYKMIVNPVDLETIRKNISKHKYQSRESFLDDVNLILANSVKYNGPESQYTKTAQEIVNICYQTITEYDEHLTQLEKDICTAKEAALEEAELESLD
Put plainly: BromoScan profiling (DiscoverX). The settings on record: read-out: Percent Control TAF1L(2). The format is binding.

Data set [4] concerns the target T3, BRD4(1) (Homo sapiens, UniProt O60885).
T3 construct: BRD4(1); purchased Eurofins DiscoverX (BROMOscan)
Put plainly: BromoScan profiling (DiscoverX). Format: binding. To be noted: read-out: Percent Control BRD4(1).

Data set [5] has as its system c-MYC in HDMB03 (HDMBO3) cells. The data set is described as follows: Western blotting for c-MYC after 6 h treatment. To be noted: CCS1477 39 nM, A485 400 nM, JQ1 100 nM. The format is cell-based. The source says:
Line width indicates strength of known protein-protein interactions. Red indicates proteins involved in control of mRNA transcription/cell cycle, blue indicates proteins involved in RNA metabolism.
Western blotting protocols were as previously described[16],[69]. Briefly, cells growing in culture were lysed for whole-cell lysates using RIPA buffer, or for affinity pulldown using IP-lysis buffer (Pierce Biotechnology) per the manufacturer’s protocol. […] Equal amounts of protein were resolved by Western blotting using 4% to 12% Bis–Tris NuPAGE gels (Thermo Fisher Scientific) prior to transfer and immunoblotting using primary antibodies to EP300 (1:1000, Abcam ab10485), BRD4 (1:1000, Epicypher 13-2003), c-MYC (1:1000, Cell Signaling Technology #5605) or β-Actin (1:1000, Cell Signaling Technology #4967). Secondary antibodies were horseradish peroxidase–conjugated anti-rabbit or anti-mouse (1:5000, Santa Cruz Biotechnology, sc-2357, sc-358914), incubated prior to exposure to enhanced chemiluminescence reagents (GE Amersham). Densitometry was performed using Image Lab v6.1 (BioRad).

In data set [6] the target is T4, CECR2 (Homo sapiens, UniProt Q9BXF3).
T4 construct: purchased Eurofins DiscoverX (BROMOscan)
T4 sequence (Q9BXF3 whole entry): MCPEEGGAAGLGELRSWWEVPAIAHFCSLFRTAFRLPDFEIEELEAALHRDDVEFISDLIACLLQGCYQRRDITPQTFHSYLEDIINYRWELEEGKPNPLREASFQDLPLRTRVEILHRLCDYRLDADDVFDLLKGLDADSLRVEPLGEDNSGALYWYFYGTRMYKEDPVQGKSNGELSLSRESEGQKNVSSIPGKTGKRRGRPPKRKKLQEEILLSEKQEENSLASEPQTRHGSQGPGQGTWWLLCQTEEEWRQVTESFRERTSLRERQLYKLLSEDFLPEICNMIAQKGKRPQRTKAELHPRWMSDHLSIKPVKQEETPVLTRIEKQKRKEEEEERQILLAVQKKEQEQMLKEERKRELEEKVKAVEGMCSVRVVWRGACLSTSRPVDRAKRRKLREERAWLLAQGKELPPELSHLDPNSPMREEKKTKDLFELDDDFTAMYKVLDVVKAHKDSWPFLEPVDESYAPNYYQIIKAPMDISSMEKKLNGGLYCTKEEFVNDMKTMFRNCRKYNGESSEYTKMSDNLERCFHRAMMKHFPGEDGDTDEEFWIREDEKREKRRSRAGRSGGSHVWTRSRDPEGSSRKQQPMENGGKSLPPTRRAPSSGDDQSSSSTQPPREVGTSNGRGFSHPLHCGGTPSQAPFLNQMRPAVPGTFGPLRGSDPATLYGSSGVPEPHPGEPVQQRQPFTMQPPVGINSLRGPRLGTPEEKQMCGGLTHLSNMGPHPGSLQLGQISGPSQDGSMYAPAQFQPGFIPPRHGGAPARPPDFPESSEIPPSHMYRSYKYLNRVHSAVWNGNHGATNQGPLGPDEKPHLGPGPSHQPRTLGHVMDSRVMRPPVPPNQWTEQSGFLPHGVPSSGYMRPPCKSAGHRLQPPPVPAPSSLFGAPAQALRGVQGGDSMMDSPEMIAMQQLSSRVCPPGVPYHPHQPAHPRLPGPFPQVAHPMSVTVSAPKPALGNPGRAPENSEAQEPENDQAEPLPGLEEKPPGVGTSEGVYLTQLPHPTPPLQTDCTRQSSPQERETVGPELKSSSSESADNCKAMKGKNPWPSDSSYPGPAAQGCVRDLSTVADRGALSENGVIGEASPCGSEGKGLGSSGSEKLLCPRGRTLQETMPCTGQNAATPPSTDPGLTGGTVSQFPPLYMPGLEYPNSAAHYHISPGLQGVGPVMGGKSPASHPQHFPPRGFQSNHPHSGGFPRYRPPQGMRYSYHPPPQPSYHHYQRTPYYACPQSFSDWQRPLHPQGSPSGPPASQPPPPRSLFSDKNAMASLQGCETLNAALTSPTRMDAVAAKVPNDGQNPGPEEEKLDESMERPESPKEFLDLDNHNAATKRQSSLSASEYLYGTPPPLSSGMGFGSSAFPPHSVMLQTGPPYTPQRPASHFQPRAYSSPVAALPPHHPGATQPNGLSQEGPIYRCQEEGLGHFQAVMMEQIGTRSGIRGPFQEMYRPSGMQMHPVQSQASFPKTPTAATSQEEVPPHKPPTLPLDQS
The data set is described as follows: BromoScan profiling (DiscoverX). The format is binding. The settings on record: read-out: Percent Control CECR2.

For the compound `CO[C@H]1CC[C@H](n2c([C@@H]3CCCC(=O)N3c3ccc(F)c(F)c3)nc3cc(-c4c(C)noc4C)ccc32)CC1` [CCS1477], the remaining binding at 1 µM turned out to be 75% in data set [1], 80% in data set [3], 3.3% in data set [4] and 78% in data set [6]. In data set [2] (25 or 50 mg/kg i.p., 8, 16, 24 h), the brain tissue concentration was under 6 ng/mL. In addition, the brain concentration in data set [2] (i.p., 16 and 24 hrs) was under 6 ng/mL. Further, the “MYC gene expression and protein levels” value in data set [5] is “loss of MYC gene expression and protein levels”.
